{
  "source": "patent US20220023436A1",
  "about": "“COMBINATION OF ANTIBODY-DRUG CONJUGATE WITH PARP INHIBITOR” (DAIICHI SANKYO COMPANY, LIMITED, priority 2018, published 2022)",
  "key": {"[1]": {"test_system": "Human breast cancer cell line KPL-4", "format": "cell-based", "conditions": "KPL-4 cell line", "protocol": "(§1) For combination effects, differences between estimates of additive effects from the Loewe model (Greco W R. et al., Pharmacol. Rev. 1995 June; 47 (2): 331-85) and cell growth inhibition rates (%) subjected to sigmoid fitting were converted to matrices, and Synergy Scores were calculated from the matrix elements using a method described in the reference (Lehar J. et al., Nat Biotechnol. 2009 July; 27 (7):659-66). Besides, Synergy Score=0 indicates an additive effect; Synergy Score>0 indicates a synergistic effect; and Synergy Score<0 indicates an antagonistic effect.\nHuman breast cancer cell line KPL-4, which was obtained from Dr. Junichi Kurebayashi in Kawasaki Medical School [British Journal of Cancer, (1999) 79 (5/6). 707-717], was used for evaluation. […] Then, KPL-4 cells suspended at 1×10^4 cells/mL with RPMI1640 Medium containing 10% fetal bovine serum were seeded at 2.5 μL/well, and cultured at 37° C. under 5%CO2 for 6 days. After culturing, a solution of CellTiter-Glo 2.0 Assay diluted with an equivalent volume of Glo Lysis buffer, 1× was added at 2 μL/well and subjected to incubation at room temperature for an hour, followed by measurement of luminescence intensity of each well."}, "[2]": {"test_system": "Human pancreatic cancer cell line BxPC-3", "format": "cell-based", "conditions": "BxPC-3 cell line", "protocol": "as §1\n(§2) Human pancreatic cancer cell line BxPC-3, which was obtained from ATCC, was used for evaluation. […] Then, BxPC-3 cells suspended at 4×10^4 cells/mL with RPMI1640 Medium containing 10% fetal bovine serum were seeded at 2.5 μL/well, and cultured at 37° C. under 5%CO2 for 6 days. After culturing, a solution of CellTiter-Glo 2.0 Assay (Promega) diluted with an equivalent volume of Glo Lysis buffer, 1× (Promega) was added at 2 μL/well and subjected to incubation at room temperature for an hour, followed by measurement of luminescence intensity of each well."}, "[3]": {"test_system": "Human gastric cancer cell line NCI-N87", "format": "cell-based", "protocol": "Human gastric cancer cell line NCI-N87, which was obtained from ATCC (American Type Culture Collection), was used for evaluation. […] Then, NCI-N87 cells suspended at 4×10^4 cells/mL with RPMI1640 Medium containing 10% fetal bovine serum were seeded at 2.5 μL/well, and cultured at 37° C. under 5%CO2 for 6 days.\nAfter culturing, a solution of CellTiter-Glo 2.0 Assay (Promega) diluted with an equivalent volume of Glo Lysis buffer, 1× (Promega) was added at 2 μL/well and subjected to incubation at room temperature for an hour, followed by measurement of luminescence intensity of each well.\nCell growth inhibition rate […] in each condition was calculated using the following formula: […]\nT: average luminescence intensity of wells added with each sample\nB: average luminescence intensity of wells added with DMSO and medium\nC: average luminescence intensity of wells added with DMSO and cells\nFurthermore, sigmoid fitting was performed for the concentration-dependent transition of cell growth inhibition rate in each combination condition using Genedata Screener Analyzer Version 14 (Genedata, hereinafter referred to as Screener).\nas §1"}, "[4]": {"test_system": "Human breast cancer cell line HCC70", "format": "cell-based", "protocol": "as §1\nas §2, with “breast” for “pancreatic”, “HCC70,” for “BxPC-3,”, “HCC70” for “BxPC-3”, “Assay” for “Assay (Promega)”, “1×” for “1× (Promega)”"}, "[5]": {"test_system": "Human lung cancer cell line EBC-1", "format": "cell-based", "conditions": "EBC-1 cell line", "protocol": "as §1\nHuman lung cancer cell line EBC-1, which was obtained from Health Science Research Resources Bank (current Japanese Collection of Research Bioresources [JCRB] Cell Bank), was used for evaluation. […] Then, EBC-1 cells suspended at 2×10^4 cells/mL with RPMI1640 Medium containing 10% fetal bovine serum were seeded at 2.5 μL/well, and cultured at 37° C. under 5%CO2 for 6 days. After culturing, a solution of CellTiter-Glo 2.0 Assay diluted with an equivalent volume of Glo Lysis buffer, 1× was added at 2 μL/well and subjected to incubation at room temperature for an hour, followed by measurement of luminescence intensity of each well."}, "[6]": {"test_system": "Human breast cancer cell line KPL-4", "format": "in vivo, BALB/c nude mice", "protocol": "The calculation formula is as shown below.\nHuman breast cancer cell line KPL-4 [British Journal of Cancer, (1999) 79 (5/6).\nIncidentally, in the following evaluation examples relating to antitumor studies, unless otherwise described, the studies are performed by the procedure used in this evaluation example."}, "[7]": {"test_system": "Human ovarian cancer cell line OV-90", "test": "Antitumor study (9), subcutaneously transplanted OV-90 cells, CDH6-ADC (1)", "conditions": "OV-90 model, Day 17 after administration, single administration group; cachexia-like weight loss when tumor size exceeds 1500 mm^3", "experimental": "(§3) Measurement and calculation formula: In all studies, the major axis and minor axis of tumors were measured twice a week with an electronic digital caliper (CD15-CX, Mitutoyo Corp.), and the tumor volume (mm^3) was calculated. The calculation formula is as shown below.\n(§4) Tumor growth inhibition (%)=100×(1−T/C) • T: Average tumor volume of mice of test substance administration group • C: Average tumor volume of mice of control group\nTalazoparib was dissolved with DMSO, diluted with 0.5% hydroxypropyl methylcellulose, and orally administered in a fluid volume of 10 mL/kg. […] Veliparib was dissolved with a 0.05M CH COON solution and orally administered in a fluid volume of 10 mL/kg.\nHuman ovarian cancer cell line OV-90, which was purchased from ATCC, was suspended into physiological saline, subcutaneously transplanted at 1×10^7 cells into the right side of female nude mice, and the mice were randomly grouped 14 days after the transplantation (Day 0). […] Single administration groups of each drug, a combined administration group, and a solvent administration group as a control group were set up."}, "[8]": {"test_system": "Human gastric cancer cell line NCI-N87", "format": "in vivo, BALB/c nude mice", "conditions": "NCI-N87 s.c. in nude mice; HER2-ADC (1) 1 mg/kg iv Day 0; olaparib 50 mg/kg, talazoparib 0.4 mg/kg once a day, five times a week, two weeks", "experimental": "as §3\n(§5) Tumor volume (mm^3)=1/2×Major axis (mm)×[Minor axis (mm)]^2\nTalazoparib was dissolved with DMSO, diluted with 0.5% hydroxypropyl methylcellulose, and orally administered in a fluid volume of 10 mL/kg.\nHuman gastric cancer cell line NCI-N87, which was purchased from ATCC (American Type Culture Collection), was suspended into physiological saline, subcutaneously transplanted at 1×10^7 cells into the right side of female nude mice, and the mice were randomly grouped 6 days after the transplantation (Day 0). […] Single administration groups of each drug, a combined administration group, and a solvent administration group as a control group were set up."}, "[9]": {"test_system": "Human ovarian cancer cell line SK-OV-3", "format": "in vivo, BALB/c nude mice", "conditions": "SK-OV-3 s.c. in nude mice; HER2-ADC (1) 3 mg/kg iv Day 0 and Day 14; olaparib 60 mg/kg, talazoparib 0.4 mg/kg once a day, five times a week, three weeks", "experimental": "as §3, §5\n(§6) The HER2-ADC (1) was diluted with ABS buffer (10 mM acetate buffer [pH 5.5], 5% sorbitol), and intravenously administered in a fluid volume of 10 mL/kg to the tail vein. […] Talazoparib was dissolved with DMSO, diluted with 0.5% hydroxypropyl methylcellulose, and orally administered in a fluid volume of 10 mL/kg.\nHuman ovarian cancer cell line SK-OV-3 cells, which were purchased from ATCC (American Type Culture Collection), were maintained by nude mouse transplantation, subcutaneously transplanted in the form of a tumor mass of solid tumor (3×3×3 mm) into the right side of female nude mice, and the mice were randomly grouped 19 days after the transplantation (Day 0). HER2-ADC (1) was intravenously administered to the tail vein at a dose of 3 mg/kg on Day 0 and Day 14. […] Single administration groups of each drug, a combined administration group, and a solvent administration group as a control group were set up."}, "[10]": {"test_system": "Human breast cancer cell line MX-1", "test": "Antitumor study (6), subcutaneously transplanted MX-1 cells, HER3-ADC (1)", "format": "in vivo", "conditions": "MX-1 s.c. in nude mice; HER3-ADC (1) 3 mg/kg iv Day 0, 7, 15; olaparib 100 mg/kg po, talazoparib 0.4 mg/kg po once a day, five times a week, two weeks", "experimental": "(§7) Talazoparib was dissolved with dimethyl acetamide, diluted with 5% Kolliphor HS15/Dulbecco's phosphate-buffered saline, and orally administered in a fluid volume of 10 mL/kg.\n(§8) In Examples 16 and 17, HER3-ADC (1) was diluted with ABS buffer (10 mM acetate buffer (pH 5.5), 5% sorbitol), and intravenously administered in a fluid volume of 10 mL/kg to the tail vein.\nHuman breast cancer cell line MX-1 was suspended into 50% Matrigel matrix, subcutaneously transplanted at 5×10^6 cells into the right side of female nude mice, and the mice were randomly grouped 13 days after the transplantation (Day 0). The HER3-ADC (1) was intravenously administered to the tail vein at a dose of 3 mg/kg on Day 0, Day 7 and Day 15. […] Single administration groups of each drug, a combined administration group, and a solvent administration group as a control group were set up."}, "[11]": {"test_system": "Human breast cancer cell line HCC70", "test": "Antitumor study (7), subcutaneously transplanted HCC70 cells, HER3-ADC (1)", "format": "in vivo", "conditions": "HCC70 s.c. in nude mice; HER3-ADC (1) 10 mg/kg iv Day 0, 7, 14; olaparib 100 mg/kg po, talazoparib 0.4 mg/kg po once a day, five times a week, two weeks", "experimental": "as §7, §8\nHuman breast cancer cell line HCC70 was suspended into physiological saline, subcutaneously transplanted at 1×10^7 cells into the right side of female nude mice, and the mice were randomly grouped 13 days after the transplantation (Day 0). The HER3-ADC (1) was intravenously administered to the tail vein at a dose of 10 mg/kg on Day 0, Day 7 and Day 14. […] Single administration groups of each drug, a combined administration group, and a solvent administration group as a control group were set up."}, "[12]": {"test_system": "Human breast cancer cell line MX-1", "format": "in vivo", "conditions": "MX-1 s.c. in nude mice; HER2-ADC (1) 3 mg/kg iv Day 0; olaparib 100 mg/kg po, talazoparib 0.4 mg/kg po once a day, five times a week, two weeks", "experimental": "as §7\nHuman breast cancer cell line MX-1, which was purchased from CLS (Cell Lines Service), was suspended into 50% Matrigel matrix, subcutaneously transplanted at 5×10^6 cells into the right side of female nude mice, and the mice were randomly grouped 13 days after the transplantation (Day 0). The HER2-ADC (1) was intravenously administered to the tail vein at a dose of 3 mg/kg on Day 0. […] Single administration groups of each drug, a combined administration group, and a solvent administration group as a control group were set up."}, "[13]": {"test_system": "Human breast cancer cell line JIMT-1", "conditions": "mouse, in vivo", "experimental": "Measurement and calculation formula: In all studies, the major axis and minor axis of tumors were measured twice a week with an electronic digital caliper (CD15-CX, Mitutoyo Corp.), and the tumor volume (mm^3) was calculated.\nas §5, §6\nHuman breast cancer cell line JIMT-1, which was purchased from DSMZ (Deutsche Sammlung von Mikroorganismen and Zellkulturen GmbH), was suspended into physiological saline, subcutaneously transplanted at 5×10^6 cells into the right side of female nude mice, and the mice were randomly grouped 10 days after the transplantation (Day 0). The HER2-ADC (1) was intravenously administered to the tail vein at a dose of 10 mg/kg on Day 0. […] Single administration groups of each drug, a combined administration group, and a solvent administration group as a control group were set up."}, "[14]": {"test_system": "Human breast cancer cell line HCC1806", "conditions": "mouse, in vivo", "experimental": "as §3, §5\nTumor growth inhibition (TGI) was calculated in accordance with the following calculation formula.\nas §4\nRucaparib (camsylate) was dissolved with DMSO, diluted with physiological saline, and orally administered in a fluid volume of 10 mL/kg. Talazoparib was dissolved with DMSO, diluted with 10% N,N-Dimethylacetamide/5% Kolliphor HS 15/Dulbecco's Phosphate-Buffered Saline, and orally administered in a fluid volume of 10 mL/kg.\nHuman breast cancer cell line HCC1806, which was Purchased from ATCC, was suspended into physiological saline, subcutaneously transplanted at 1×10^6 cells into the right side of female nude mice, and the mice were randomly grouped 10 days after the transplantation (Day 0). […] Single administration groups of each drug, a combined administration group, and a solvent administration group as a control group were set up, and tumor growth inhibition (TGI) on Day 21 was calculated."}, "[15]": {"conditions": "6 days, rucaparib (phosphate), >0 synergistic"}, "[16]": {"conditions": "all combinations with olaparib, talazoparib, rucaparib, niraparib"}, "[17]": {"conditions": "KPL-4 s.c. in nude mice, last day of study, HER2-ADC (1) 7.5 mg/kg iv Day 0, olaparib 50 mg/kg ip, niraparib 50 mg/kg po, talazoparib 0.4 mg/kg po, rucaparib (camsylate) 150 mg/kg po, once a day, five times a week, two weeks"}},
  "note": "Where two headings read alike, the source gives them in different places.",
  "data": [
    {"compound": "CC[C@@]1(O)C(=O)OCc2c1cc1n(c2=O)Cc2c-1nc1cc(F)c(C)c3c1c2[C@@H](NC(=O)CO)CC3", "note": "[Compound (1)]", "values": [
      {"measurement": "Synergy Score of combination with Niraparib", "setting": "[1]; 6 days, >0 synergistic", "result": 3.68},
      {"measurement": "Synergy Score of combination with Olaparib", "setting": "[1]; 6 days, >0 synergistic", "result": 3.97},
      {"measurement": "Synergy Score of combination with Talazoparib", "setting": "[1]; 6 days, >0 synergistic", "result": 4.86},
      {"measurement": "Synergy Score of combination with Rucaparib", "setting": "[1]; [15]", "result": 4.97},
      {"measurement": "combination effect in cell growth inhibition study", "setting": "[1]; [16]", "result": "synergistic effects"},
      {"measurement": "Synergy Score of combination with Niraparib", "setting": "[2]; 6 days, >0 synergistic", "result": 1.85},
      {"measurement": "Synergy Score of combination with Olaparib", "setting": "[2]; 6 days, >0 synergistic", "result": 1.56},
      {"measurement": "Synergy Score of combination with Talazoparib", "setting": "[2]; 6 days, >0 synergistic", "result": 3.25},
      {"measurement": "Synergy Score of combination with Rucaparib", "setting": "[2]; [15]", "result": 2.15},
      {"measurement": "combination effect in cell growth inhibition study", "setting": "[2]; [16]", "result": "synergistic effects"},
      {"measurement": "Synergy Score of combination with Niraparib", "setting": "[3]; 6 days, >0 synergistic", "result": 1.23},
      {"measurement": "Synergy Score of combination with Talazoparib", "setting": "[3]; 6 days, >0 synergistic", "result": 4.58},
      {"measurement": "Synergy Score of combination with Olaparib", "setting": "[3]; 6 days, >0 synergistic, 0 additive, <0 antagonistic", "result": 3.21},
      {"measurement": "Synergy Score of combination with Rucaparib", "setting": "[3]; [15]", "result": 1.93},
      {"measurement": "combination effect in cell growth inhibition study", "setting": "[3]; [16]", "result": "synergistic effects"},
      {"measurement": "Synergy Score of combination with Niraparib", "setting": "[4]; 6 days, >0 synergistic", "result": 1.61},
      {"measurement": "Synergy Score of combination with Olaparib", "setting": "[4]; 6 days, >0 synergistic", "result": 1.98},
      {"measurement": "Synergy Score of combination with Talazoparib", "setting": "[4]; 6 days, >0 synergistic", "result": 4.61},
      {"measurement": "Synergy Score of combination with Rucaparib", "setting": "[4]; [15]", "result": 2.48},
      {"measurement": "combination effect in cell growth inhibition study", "setting": "[4]; [16]", "result": "synergistic effects"},
      {"measurement": "Synergy Score of combination with Niraparib", "setting": "[5]; 6 days, >0 synergistic", "result": 3.17},
      {"measurement": "Synergy Score of combination with Olaparib", "setting": "[5]; 6 days, >0 synergistic", "result": 3.39},
      {"measurement": "Synergy Score of combination with Talazoparib", "setting": "[5]; 6 days, >0 synergistic", "result": 5.66},
      {"measurement": "Synergy Score of combination with Rucaparib", "setting": "[5]; [15]", "result": 4.41},
      {"measurement": "combination effect in cell growth inhibition study", "setting": "[5]; [16]", "result": "synergistic effects"}
    ]},
    {"compound": "NC(=O)c1cccc2cn(-c3ccc([C@@H]4CCCNC4)cc3)nc12", "note": "[niraparib]", "values": [
      {"measurement": "tumor growth inhibition (TGI), single administration", "setting": "[6]; mouse, in vivo", "result": 39, "unit": "%"},
      {"measurement": "mice euthanized due to weight loss", "setting": "[7]", "result": "1 case out of 6 cases"}
    ]},
    {"compound": "O=C(c1cc(Cc2n[nH]c(=O)c3ccccc23)ccc1F)N1CCN(C(=O)C2CC2)CC1", "note": "[olaparib]", "values": [
      {"measurement": "TGI, single administration", "setting": "[8]", "result": 26, "unit": "%"},
      {"measurement": "tumor growth inhibition (TGI), single administration", "setting": "[6]; [17]", "result": 21, "unit": "%"},
      {"measurement": "TGI, single administration", "setting": "[9]", "result": 15, "unit": "%"},
      {"measurement": "TGI, single administration", "setting": "[10]", "result": 23, "unit": "%"},
      {"measurement": "TGI, single administration", "setting": "[11]", "result": 18, "unit": "%"},
      {"measurement": "TGI, single administration", "setting": "[12]", "result": 44, "unit": "%"}
    ]},
    {"compound": "CNCc1ccc(-c2[nH]c3cc(F)cc4c3c2CCNC4=O)cc1", "note": "[rucaparib]", "values": [
      {"measurement": "tumor growth inhibition (TGI), single administration", "setting": "[6]; [17]", "result": 42, "unit": "%"},
      {"measurement": "mice euthanized due to weight loss", "setting": "[7]", "result": "1 case out of 6 cases"}
    ]},
    {"compound": "Cn1ncnc1[C@H]1c2n[nH]c(=O)c3cc(F)cc(c23)N[C@@H]1c1ccc(F)cc1", "note": "[talazoparib]", "values": [
      {"measurement": "TGI, single administration", "setting": "[8]", "result": -2, "unit": "%"},
      {"measurement": "tumor growth inhibition (TGI), single administration", "setting": "[6]; [17]", "result": 31, "unit": "%"},
      {"measurement": "TGI, single administration", "setting": "[13]", "result": 13, "unit": "%"},
      {"measurement": "TGI, single administration", "setting": "[14]", "result": 27, "unit": "%"},
      {"measurement": "TGI, single administration", "setting": "[9]", "result": 12, "unit": "%"},
      {"measurement": "TGI, single administration", "setting": "[10]", "result": 49, "unit": "%"},
      {"measurement": "TGI, single administration", "setting": "[11]", "result": 19, "unit": "%"},
      {"measurement": "TGI, single administration", "setting": "[12]", "result": 47, "unit": "%"}
    ]}
  ]
}
